# Data as given in patent publication US6399618B1, “Compositions and methods for modulating sexual activity” (priority 1997, dated 2002).
# Structures can show the parent of a compound that is named as a salt. Marks after values point to notes of the source that are not given here.
# Assays:
# [1] = system: male primates; assay: Sexual behavior in male primates, paired observation study (penile response grades); type: in vivo, macaca fascilaris; conditions: 1.0 mg/kg ip; N=3; observed 1 hour
# Protocol: Monkeys used for testing were separated from the cluster of cages and treated and observed in pairs in the middle of the housing environment.
# N=3 for all drug-treated animals, while N=18 for saline-treated animals. […] Data are expressed as the number of test animals having a particular grade of penile response. Penile responses were scored every 10 sec for 1 hour according to the following scale:
# Grade 0=glans are hidden from the view
# Grade 1=glans are clearly visible
# Grade 2=penis is extended
# Grade 4=erection with masturbation
# Grade 5=erection with masturbation and ejaculation
# [2] = system: male rats; assay: Antagonism of XVIb-induced erections by comparative compounds in rats; type: in vivo, SD rats; conditions: XVIb 16 mg/kg ip; n=6
# Protocol: Male SD rats (300-500 g; n=6 per group) were injected with (±)-Pindolol, scopolamine, haloperidol, or ketanserin, 30 minutes prior to injection of a single dose of XVIb (16 mg/kg, ip) or saline.
# [3] = system: male primates; assay: Primate sexual behavior, isolated observation study; type: in vivo, Macaca fascilaris; conditions: for # of behavioral Purse Lip Gesture / # of behavioral Yawning / Grade 0 (glans hidden from view) / Grade 1 (glans clearly visible) / Grade 2 (penis extended) / Grade 3 (full erection) / Grade 4 (erection with masturbation) / Grade 5 (erection with masturbation and ejaculation): isolation, 1 hour, n=6
# Protocol: Adult male Macaca fascilaris (3.8-8 kg, n=6) were injected (0.1-10.0 mg/kg; ip; 0.5 mL/kg body weight) with either saline or compound XVIb and observed 10 minutes later for behavioral responses and locomotion for 1 hour. Monkeys used for testing were injected and observed in separate locations remote from housing environment. Each monkey received a dose of XVIb at 72 hour intervals.
# In Table 4, the effect of compound XVIb on erectile responses is reported for male primates observed in isolation. Data are expressed as mean (sem, standard error of measurements) for 6 test animals. Penile responses were scored every 10 seconds for 1 hour according to the following scale: Grade 0=glans hidden from view, Grade 1=glans clearly visible, Grade 2=penis extended, Grade 3=full erection, Grade 4=erection with masturbation, Grade 5=erection with masturbation and ejaculation. In Table 4, data marked with an asterisk “*” indicate a significant difference from saline as determined by repeated measures ANOVA and Dunnetts test for multiple comparisons (α<0.05). The data in Table 4 are reported as % genital observations.
# [4] = system: male rats; assay: Rat sexual behavior, proerectile actions after oral administration; type: in vivo, SD rats
# Protocol: Male SD rats (250-300 g) were administered increasing doses of XVIb (30-100 mg/kg in distilled water, per os) or distilled water only via a feeding tube, and observed 5 minutes later for the number of erections (as characterized by penile grooming) over a 60 minute observation period. Six rats at a time, housed singly, were observed by two observers. Treatments were administered in a standard randomized and double blinded manner.
# [5] = system: male rats; assay: Rat sexual behavior, proerectile actions (injected); type: in vivo, SD rats; conditions: for Erections/60 minutes / Latency to the first erection: mean±sem; for Erections/60 minutes / Latency to the first erection / Responders: n=10
# Protocol: Male SD rats (350-450 g; n=10 per group) were injected with increasing doses of XVIb (4.0-64.0 mg/kg), XVIa (1.0, 4.0 or 16 mg/kg) or saline and observed 5 minutes later, in groups of 5, for the number of erections and the time to the first erection, over a 60 minutes observation period.
# In Table 2, the effects of XVIb, XVIa and saline on erection in male rats is indicated. Data is expressed as the mean±sem for 10 test animals. Data marked with an asterisk “*” indicate significant difference from saline (α<0.05) as determined by ANOVA with Tukey test for multiple comparisons.
# [6] = system: male rats; assay: Rat behavior, blood chemistry and body temperature; type: in vivo, SD rats
# Protocol: Male SD rats (350-450 g; n=15 per group) were injected with a single dose of XVIb (16 mg/kg, ip) and saline and observed 5 minutes later, in pairs, for erections, ejaculation, movement and grooming over a 60 minute observation period. Rectal temperature was recorded before drug administration and 1 hour after drug administration. At the end of experiments rats were decapitated and trunk blood was collected for RIA analysis of serum cortisol and prolactin levels.
# [7] = 16 mg/kg ip, RIA of trunk blood at end of experiment
structure (smiles),measurement,setting,value
"CN1CCN(C(=O)Cc2ccc3ccccc3c2)CC1 [Compound XVIb, 1-Methyl-4(2-naphthaleneacetyl)piperazine monohydrochloride]",number of test animals having Grade 0 penile response (glans are hidden from the view),[1],1
same,number of test animals having Grade 1 penile response (glans are clearly visible),[1],2
same,number of test animals having Grade 2 penile response (penis is extended),[1],2
same,number of test animals having Grade 3 penile response (full erection),[1],2
same,number of test animals having Grade 4 penile response (erection with masturbation),[1],1
same,number of test animals having Grade 5 penile response (erection with masturbation and ejaculation),[1],0
same,erections with XVIb without antagonist (pindolol comparison),[2],7.8±1.4 erections/60 minutes
same,erections with XVIb without antagonist (scopolamine comparison),[2],1.7 erections/60 minutes
same,# of behavioral Purse Lip Gesture,[3]; 0.1 mg/kg ip,5.8 ± 3.9 #
same,# of behavioral Yawning,[3]; 0.1 mg/kg ip,8.8 ± 4.5 #
same,Grade 0 (glans hidden from view),[3]; 0.1 mg/kg ip,81.8 ± 8.2 % genital observations
same,Grade 1 (glans clearly visible),[3]; 0.1 mg/kg ip,17.8 ± 7.9 % genital observations
same,Grade 2 (penis extended),[3]; 0.1 mg/kg ip,0.4 ± 0.3 % genital observations
same,Grade 3 (full erection),[3]; 0.1 mg/kg ip,0 ± 0 % genital observations
same,Grade 4 (erection with masturbation),[3]; 0.1 mg/kg ip,0 ± 0 % genital observations
same,Grade 5 (erection with masturbation and ejaculation),[3]; 0.1 mg/kg ip,0 ± 0 % genital observations
same,# of behavioral Purse Lip Gesture,[3]; 0.3 mg/kg ip,10.2 ± 3.9 #
same,# of behavioral Yawning,[3]; 0.3 mg/kg ip,11.7 ± 3.8 #
same,Grade 0 (glans hidden from view),[3]; 0.3 mg/kg ip,67.3 ± 12.2 % genital observations
same,Grade 1 (glans clearly visible),[3]; 0.3 mg/kg ip,32.8 ± 11.5 % genital observations
same,Grade 2 (penis extended),[3]; 0.3 mg/kg ip,0.5 ± 0.5 % genital observations
same,Grade 3 (full erection),[3]; 0.3 mg/kg ip,0 ± 0 % genital observations
same,Grade 4 (erection with masturbation),[3]; 0.3 mg/kg ip,0 ± 0 % genital observations
same,Grade 5 (erection with masturbation and ejaculation),[3]; 0.3 mg/kg ip,0 ± 0 % genital observations
same,# of behavioral Purse Lip Gesture,[3]; 1.0 mg/kg ip,7.5 ± 3.4 #
same,# of behavioral Yawning,[3]; 1.0 mg/kg ip,11.3 ± 2.5 #
same,Grade 0 (glans hidden from view),[3]; 1.0 mg/kg ip,72.0 ± 12.0 % genital observations
same,Grade 1 (glans clearly visible),[3]; 1.0 mg/kg ip,26.6 ± 10.6 % genital observations
same,Grade 2 (penis extended),[3]; 1.0 mg/kg ip,1.4 ± 1.4 % genital observations
same,Grade 3 (full erection),[3]; 1.0 mg/kg ip,0 ± 0 % genital observations
same,Grade 4 (erection with masturbation),[3]; 1.0 mg/kg ip,0 ± 0 % genital observations
same,Grade 5 (erection with masturbation and ejaculation),[3]; 1.0 mg/kg ip,0 ± 0 % genital observations
same,# of behavioral Purse Lip Gesture,[3]; 3.0 mg/kg ip,14.0 ± 8.3 #
same,# of behavioral Yawning,[3]; 3.0 mg/kg ip,13 ± 3.4 #
same,Grade 0 (glans hidden from view),[3]; 3.0 mg/kg ip,56.8 ± 7.8 % genital observations
same,Grade 1 (glans clearly visible),[3]; 3.0 mg/kg ip,42.1 ± 8.3 % genital observations
same,Grade 2 (penis extended),[3]; 3.0 mg/kg ip,1.7 ± 1.4 % genital observations
same,Grade 3 (full erection),[3]; 3.0 mg/kg ip,0.3 ± 0.3 % genital observations
same,Grade 4 (erection with masturbation),[3]; 3.0 mg/kg ip,0 ± 0 % genital observations
same,Grade 5 (erection with masturbation and ejaculation),[3]; 3.0 mg/kg ip,0 ± 0 % genital observations
same,# of behavioral Purse Lip Gesture,[3]; 10.0 mg/kg ip,33 ± 14* #
same,# of behavioral Yawning,[3]; 10.0 mg/kg ip,14.0 ± 4.0 #
same,Grade 0 (glans hidden from view),[3]; 10.0 mg/kg ip,24.5 ± 7.6 % genital observations
same,Grade 1 (glans clearly visible),[3]; 10.0 mg/kg ip,72.1 ± 7.7* % genital observations
same,Grade 2 (penis extended),[3]; 10.0 mg/kg ip,2.5 ± 1.0 % genital observations
same,Grade 3 (full erection),[3]; 10.0 mg/kg ip,0.9 ± 0.6 % genital observations
same,Grade 4 (erection with masturbation),[3]; 10.0 mg/kg ip,0 ± 0 % genital observations
same,Grade 5 (erection with masturbation and ejaculation),[3]; 10.0 mg/kg ip,0 ± 0 % genital observations
same,grade 1 penile erections (in words),"[3]; 0.1-10 mg/kg, primates observed in isolation, significance only at the highest dose",dose dependently (0.1-10 mg/kg) increased grade 1 penile erections
same,Advanced grades of penile erection (grades 2-5) (in words),[3]; any dose (0.1-10 mg/kg),not significantly affected at any dose
same,Responders,[4]; 30 mg/kg p.o.,100%
same,maximum number of erections/rat,[4]; 30 mg/kg p.o.,3 h⁻¹
same,Responders,[4]; 100 mg/kg p.o.,100%
same,maximum number of erections/rat,[4]; 100 mg/kg p.o.,5 h⁻¹
same,Erections/60 minutes,[5]; 4.0 mg/kg,2.1 ± 0.4
same,Latency to the first erection,[5]; 4.0 mg/kg,2390 ± 238 s
same,Responders,[5]; 4.0 mg/kg,100%
same,Erections/60 minutes,[5]; 8.0 mg/kg,5.1 ± 0.6* #
same,Latency to the first erection,[5]; 8.0 mg/kg,1299 ± 214 s
same,Responders,[5]; 8.0 mg/kg,100%
same,Erections/60 minutes,[5]; 16.0 mg/kg,7.7 ± 0.4* #
same,Latency to the first erection,[5]; 16.0 mg/kg,654 ± 108* sec
same,Responders,[5]; 16.0 mg/kg,100%
same,Erections/60 minutes,[5]; 32.0 mg/kg,2.5 ± 0.2
same,Latency to the first erection,[5]; 32.0 mg/kg,1046 ± 64* sec
same,Responders,[5]; 32.0 mg/kg,100%
same,Erections/60 minutes,[5]; 64.0 mg/kg,2.7 ± 0.5
same,Latency to the first erection,[5]; 64.0 mg/kg,3319 ± 170* sec
same,Responders,[5]; 64.0 mg/kg,100%
same,effect on penile erections (in words),[5]; 60 minutes observation,produced erections in rats in a bell shaped dose-response fashion
same,dose at which the maximal effect on erections was observed,[5]; doses 4.0-64.0 mg/kg,16 mg/kg
same,dose with minimal time to the first erection,[5]; doses 4.0-64.0 mg/kg,16 mg/kg
same,Serum cortisol,[6]; [7],not significantly altered
same,Serum prolactin,[6]; [7],not significantly altered
same,Rearing,"[6]; 16 mg/kg ip, n=15",77±5.9 rears/60 minutes
same,erections,"[6]; 16 mg/kg ip, n=15",5.6±0.7 erections/60 minutes
same,locomotion,"[6]; 16 mg/kg ip, n=15",20.7±3.3 moves
same,non-penile grooming,"[6]; 16 mg/kg ip, n=15",22±4.8 grooms/60 minutes
same,penile grooming,"[6]; 16 mg/kg ip, n=15",12.1±3.3 grooms/60 minutes
same,ejaculations,"[6]; 16 mg/kg ip, n=15, 60 minute observation",1.8±0.1 ejaculations
same,Rectal temperature,"[6]; 16 mg/kg, before and 1 hour after drug administration",not significantly altered
